Experiment [1] concerns the target T1, HMG CoA reductase (Rattus norvegicus, UniProt P51639).
T1 construct: measured with rat liver microsomes; from tissue; host or cells: rat liver microsomes
T1 sequence (P51639 1-887): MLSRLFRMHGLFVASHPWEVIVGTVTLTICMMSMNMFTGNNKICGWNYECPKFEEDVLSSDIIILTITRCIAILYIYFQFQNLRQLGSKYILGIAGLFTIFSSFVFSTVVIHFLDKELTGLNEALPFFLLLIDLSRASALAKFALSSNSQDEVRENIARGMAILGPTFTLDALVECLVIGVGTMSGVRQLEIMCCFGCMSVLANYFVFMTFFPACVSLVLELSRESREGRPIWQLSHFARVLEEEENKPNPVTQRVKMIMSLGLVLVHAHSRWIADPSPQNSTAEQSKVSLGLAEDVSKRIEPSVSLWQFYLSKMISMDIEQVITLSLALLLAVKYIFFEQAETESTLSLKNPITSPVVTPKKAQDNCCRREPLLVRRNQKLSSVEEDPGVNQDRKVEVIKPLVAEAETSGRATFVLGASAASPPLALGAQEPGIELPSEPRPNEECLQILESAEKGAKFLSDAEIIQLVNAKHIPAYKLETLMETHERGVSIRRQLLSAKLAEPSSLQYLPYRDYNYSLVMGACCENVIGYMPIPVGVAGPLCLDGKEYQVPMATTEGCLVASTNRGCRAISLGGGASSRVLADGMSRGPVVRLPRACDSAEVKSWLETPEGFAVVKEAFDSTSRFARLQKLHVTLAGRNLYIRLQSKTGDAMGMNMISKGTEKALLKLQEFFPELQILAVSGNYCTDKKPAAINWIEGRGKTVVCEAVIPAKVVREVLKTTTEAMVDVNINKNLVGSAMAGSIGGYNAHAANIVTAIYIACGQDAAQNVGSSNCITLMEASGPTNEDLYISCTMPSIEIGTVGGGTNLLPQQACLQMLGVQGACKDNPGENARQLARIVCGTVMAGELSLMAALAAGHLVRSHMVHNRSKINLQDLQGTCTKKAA
As to the kind of experiment: Inhibition of HMG CoA reductase catalysis in rat liver microsomes (radioactive assay of mevalonate production). The format is biochemical. As to conditions: for IC50: pH 6.8, 37° C., 15-min. incubation, four concentrations in triplicate, 14C-HMG CoA substrate. As to the method: The antihypercholesterolemic activity of each novel compound was measured using the following test. The potency of compactin and each analog as an inhibitor of HMG CoA reductase catalysis was measured with rat liver microsomes. […] Four concentrations of each compound ranging over four appropriate orders of magnitude were tested. The effect on the initial velocity of mevalonate production was determined in a radioactive assay system. […] All components but the ^14 C-HMG CoA were preincubated at 37° C. for 10 min. The inhibitor in 10 μL of DMSO was then added (control samples received DMSO only) and a 15-min. incubation was initiated by the addition of substrate. Catalysis was terminated with 33% aqueous KOH (50 μL). After 30 min., 25 μL of aqueous 0.05% bromophenol, 70000 dpm of (5-^3 H)-mevalono-lactone in 25 μL of H2 O (recovery standard) and 90 μL of 5 N aqueous HCl were added. […] Quantities of collected ^14 C-mevalonate mevalonate were corrected for ^3 -mevalonate recovery before conversion to catalytic rates. Each inhibitor concentration was assayed in triplicate and conversion of (S)-HMG Coenzyme A to product was always less than 20%. Rates in the presence of inhibitors were compared to control rates to generate % inhibition values. When % inhibition was plotted against inhibitor concentration, the resulting curve provided an IC50 value for the inhibitor in question, IC50 being defined as the concentration required to inhibit the enzyme by 50% of control.

Experiment [2] concerns HMG CoA reductase. The settings on record: background, U.S. Pat. Nos. 4,049,495, 4,137,332, 3,983,140; cited from earlier work.
In experiment [3] the test system is biosynthesis of cholesterol. The settings on record: background; cited from earlier work.

Regarding `CC[C@H](C)C(=O)O[C@H]1CCC=C2C=C[C@H](C)[C@H](/C=C/C(=O)C[C@@H](O)CC(=O)O)[C@H]21` [Formula 41*], on HMG CoA reductase [1], the “antihypercholesterolemic activity (HMG CoA reductase inhibition, in words)” value is on record as “possessing antihypercholesterolemic activity” and the IC50 was found to be 230 nM.
Regarding `CC[C@H](C)C(=O)O[C@H]1CCC=C2C=C[C@H](C)[C@H](CCC(=O)C[C@@H](O)CC(=O)O)[C@H]21` [Formula 53], on HMG CoA reductase [1], the “antihypercholesterolemic activity (HMG CoA reductase inhibition, in words)” value is recorded as “possessing antihypercholesterolemic activity” and the half-inhibitory concentration (IC50) came out at 16 nM.
As for `CC[C@H](C)C(=O)O[C@H]1CCC=C2C=C[C@H](C)[C@H](CC[C@@H]3C[C@@H](O)CC(=O)O3)[C@H]21` [Formula 1], the IC50 on HMG CoA reductase [1] was 9 nM. The “inhibition of HMG CoA reductase (in words)” value in the experiment with HMG CoA reductase [2] was “display utility as inhibitors of the enzyme hydroxymethylglutaryl coenzyme A reductase”. In addition, the “inhibition of the biosynthesis of cholesterol (in words)” value in experiment [3] was “potent as inhibitors of the biosynthesis of cholesterol”.
Turning to `CC[C@H](C)C(=O)O[C@H]1CCC=C2C=C[C@H](C)[C@H](COC(=O)C[C@@H](O)CC(=O)O)[C@H]21` [Formula 63*, (1S,2S,8S,8aR)-1-[(S)-(3-Hydroxy-4-carboxybutyryl)oxymethyl]-2-methyl-8-[(S)-(2methylbutyryl)oxy]-1,2,6,7,8a-hexahydronaphthalene], at HMG CoA reductase [1], the “antihypercholesterolemic activity (HMG CoA reductase inhibition, in words)” value was “possessing antihypercholesterolemic activity” and the IC50 was determined as 300 nM.
In the case of `CC[C@H](C)C(=O)O[C@H]1C[C@@H](C)C=C2C=C[C@H](C)[C@H](CC[C@@H]3C[C@@H](O)CC(=O)O3)[C@H]21` [Formula 2], in the experiment with HMG CoA reductase [2], the “inhibition of HMG CoA reductase (in words)” value is recorded as “display utility as inhibitors of the enzyme hydroxymethylglutaryl coenzyme A reductase”. Besides, the “inhibition of the biosynthesis of cholesterol (in words)” value in experiment [3] is on record as “potent as inhibitors of the biosynthesis of cholesterol”.

A word on the IC50: it is the concentration needed to halve the response being measured.

The record behind these values is patent publication US4950775A, “Antihypercholesterolemic compounds and synthesis thereof” (University of California, priority 1985, dated 1990).
